In general, Kd refers to the free concentration of one partner at which half of the binding sites on the other are occupied at equilibrium, for simple one-to-one binding.

The assay deals with T1, Nuclear receptor ROR-gamma (Homo sapiens, UniProt P51449).
T1 sequence (P51449 whole entry): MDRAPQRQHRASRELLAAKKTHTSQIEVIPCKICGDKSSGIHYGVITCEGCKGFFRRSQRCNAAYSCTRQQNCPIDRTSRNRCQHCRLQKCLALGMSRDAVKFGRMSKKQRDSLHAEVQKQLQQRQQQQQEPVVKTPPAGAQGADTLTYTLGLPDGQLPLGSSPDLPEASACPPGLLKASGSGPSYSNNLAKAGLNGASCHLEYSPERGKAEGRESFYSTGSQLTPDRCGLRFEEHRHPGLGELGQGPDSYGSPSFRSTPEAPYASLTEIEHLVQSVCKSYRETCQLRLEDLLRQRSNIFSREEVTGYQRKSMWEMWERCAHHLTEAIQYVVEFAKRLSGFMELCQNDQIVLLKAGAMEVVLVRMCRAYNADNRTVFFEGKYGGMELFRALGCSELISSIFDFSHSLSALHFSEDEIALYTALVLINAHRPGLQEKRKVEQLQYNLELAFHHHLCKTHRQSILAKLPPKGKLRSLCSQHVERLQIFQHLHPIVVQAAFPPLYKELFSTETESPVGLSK
The assay can be described thus: Fluorescence Based Assay: ThermoFluor is a fluorescence based assay that estimates ligand binding affinities by measuring the effect of a ligand on protein thermal stability (Pantoliano, M. W., Petrella, E. C., Kwasnoski, J. D., Lobanov, V. S., Myslik, J., Graf, E., Carver, T., Asel, E., Springer, B. A., Lane, P., and Salemme, F. R. (2001) High-density miniaturized thermal shift assays as a general strategy for drug discovery. J Biomol Screen 6, 429-40, and Matulis, D., Kranz, J. K., Salemme, F. R., and Todd, M. J. (2005) Thermodynamic stability of carbonic anhydrase: measurements of binding affinity and stoichiometry using ThermoFluor. Biochemistry 44, 5258-66). This approach is applicable to a wide variety of systems, and rigorous in theoretical interpretation through quantitation of equilibrium binding constants (KD).
As for `CCc1nc(C(=O)NC[C@]2(O)CC[C@@H](S(C)(=O)=O)CC2)c(Cl)n1-c1ncc(CCCC(F)(F)F)cc1OC(F)F`, the Kd is 87 nM.

In the case of `CCc1nc(C(=O)NC[C@]2(O)CC[C@@H](S(C)(=O)=O)CC2)c(C)n1-c1ncc(CC(C)(C)C(F)(F)F)cc1OC(F)F`, the dissociation constant Kd is 23 nM.

Consider `CCc1nc(C(=O)NC[C@H]2CC[C@H](S(C)(=O)=O)CC2)c(Cl)n1-c1ncc(CCCC(F)(F)F)cc1OC(F)F`, for which the dissociation constant Kd is 15 nM.

Source of the values: ChEMBL document CHEMBL5729128, “Phenyl and pyridinyl substituted imidazoles as modulators of RORγT” (2022).
